One substance from US10265383B2, “Treatment of radiation injury using ghrelin” (priority 2014, dated 2019) can be followed below.

Where no end group is shown, it is not given here. The star is where a group is joined. Octanoyl = CCCCCCCC(=O)*

What all share (assay type): in vivo, rat
One experiment deals with Bcl-xl. Kind of experiment: Western blot of jejunal Bcl-xl protein. The settings on record: jejunum, Day 7 after 10 Gy WBI. On the procedure:
(§1) Animal model of whole body irradiation. Rats were exposed to whole body irradiation (WBI) of 10 Gray (Gy) using a Gammacell® 1000 Irradiator (Atomic Energy of Canada Ltd) [radiation source: Cesium-137 (^137Cs)] delivered at a dose rate of about 2.5 GY/min. The animals were sedated with intra-peritoneal pentobarbital (40 mg/kg BW) prior to irradiation. During radiation, the container rotated continuously in front of the radiation source for even exposure. The animals were then returned to their cages, and food and water were provided.
(§2) Blood and Tissue Collection after WBI. Rats exposed to 10 Gy WBI were treated with 20 nmol/rat human ghrelin once a day for 6 days starting at 24 h after radiation. At the 7th day, rats were euthanized, and blood, liver and the small intestine were removed under sterile conditions. […]
(§3) Western blot analysis. […] After overnight incubation with the primary antibodies at 4° C., the membranes were washed with TBS-T Immunoreactive bands were detected using HRP-linked secondary antibody (Southern Biotech, Birmingham, Ala.) and the Enhanced Chemiluminescence (ECL) Western blot detection kit (Amersham, Piscataway, N.J.). The immunoblots were exposed to X-ray film and analyzed with the NIH Image J analysis system. […]
In general terms: Immunoblotting shows a protein as a band on a membrane.

A further experiment has as its system Bax. Description: Western blot of jejunal Bax protein. The settings on record: jejunum, Day 7 after 10 Gy WBI; slightly elevated in vehicle. As to the method: as §1, §2, §3
The subject of the next experiment is ICAM-1. Kind of experiment: Jejunal ICAM-1 mRNA expression by real time PCR. The settings on record: jejunum, Day 7 after 10 Gy WBI; vehicle increased by 69%. As to the method: as §1
Blood and Tissue Collection after WBI. Rats exposed to 10 Gy WBI were treated with 20 nmol/rat human ghrelin once a day for 6 days starting at 24 h after radiation. At the 7th day, rats were euthanized, and blood, liver and the small intestine were removed under sterile conditions. The blood was allowed to clot and following centrifugation, the serum was transferred into pyrogenic free sterile tubes, and stored at −80° C. until further analysis. Liver (0.25 g) was snap-frozen in liquid nitrogen and stored at −80° C. for subsequent bacterial translocation analysis. Small intestine, 10-15 cm of the ileum, was harvested for gut permeability studies, 10 cm of jejunum was collected for histopathology, and the remaining 10 cm jejunal segment each was collected for RNA and protein analyses.
Total RNA extraction and real time PCR. […]

Experiment [1] relates to rats exposed to 10 Gy WBI. Kind of experiment: Survival study after whole body irradiation (WBI). The settings on record: 10 Gy WBI rats, 30 day observation, vehicle 30%. As to the method: Experimental animals. Male Sprague-Dawley (SD) rats (250-350 g) purchased from Charles River Laboratories (Wilmington, Mass., USA) were used. The rats were housed in a temperature-controlled room on a 12-h light/dark cycle and fed on a standard Purina rat chow diet. Animal experimentation was carried out in accordance with the Guide for the Care and Use of Laboratory Animals. This project was approved by the Institutional Animal Care and Use Committee (IACUC) of the Feinstein Institute for Medical Research.
Animal model of whole body irradiation. […]
Survival study. To assess the survival benefits of human ghrelin, animals were exposed to 10 Gy WBI and treated with human ghrelin (20 nmol/rat) subcutaneously once a day, with the first dose given either at 24 h or 48 h after WBI, for 6 days and observed for 30 days, and the survival recorded. […] Rats in the survival study were monitored twice daily and weighed once a day during the 30 day survival period. Net weight change was calculated as: % Weight Change ((weight at each day−weight at day 0)/weight at day 0)×100.
Statistical analysis. All data are expressed as mean±SE and analyzed by one way analysis of variance (ANOVA) and compared using Student Newman Keul's test for multiple comparisons. […]

Another experiment deals with serum glucose. Kind of experiment: Serum glucose level after WBI. The settings on record: Day 7 after 10 Gy WBI; WBI reduced it by 30%. On the procedure:
as §1
Blood and Tissue Collection after WBI. Rats exposed to 10 Gy WBI were treated with 20 nmol/rat human ghrelin once a day for 6 days starting at 24 h after radiation. At the 7th day, rats were euthanized, and blood, liver and the small intestine were removed under sterile conditions. The blood was allowed to clot and following centrifugation, the serum was transferred into pyrogenic free sterile tubes, and stored at −80° C. until further analysis. Liver (0.25 g) was snap-frozen in liquid nitrogen and stored at −80° C. for subsequent bacterial translocation analysis. […]
Serum glucose and albumin levels. Serum levels of glucose and albumin were determined using Liquid Glucose Hexokinase Reagent Set and Albumin Reagent Set (Pointe Scientific, Inc.) respectively according to manufacturer's instructions.

Consider “ghrelin (GSS(Octanoyl)FLSPEHQRVQQRKESKKPPAKLQPR; listed as Homo sapiens) [human ghrelin]”, for which the “Bcl-xl protein levels, restored by” value with Bcl-xl (vehicle 34% reduction) amounted to 75%. In addition, the “Bcl-xl/Bax ratio, increase from the vehicle” value with Bcl-xl (vehicle 54% reduction) came out at 55%. The Bax protein entry with Bax was “remain same as sham”. In the experiment with ICAM-1, the “ICAM-1 mRNA expression, inhibition from the vehicle levels” value amounted to 51%. In addition, the survival rate was found to be 63% in experiment [1] (20 nmol/rat s.c. once a day for 6 days starting at 24 h after WBI) and 61% in experiment [1] (20 nmol/rat s.c. once a day for 6 days, treatment initiated at 48 h after WBI). The serum glucose result with serum glucose is recorded as “restored to near Sham levels”.
